“And” between values parts separate entries of the source, which are not always exact repeats. Identical values can stand only once.
Experiments:
HCT-116 cells = test: Anti-proliferative activity, SRB assay, HCT-116; type: cell-based, human; details: for IC50: SRB assay, 72 h exposure, mean ± SD of three separate experiments; for HCT-116 SI (selectivity index): ratio of IC50 for normal cells (WI-38) to IC50 for HCT-116
Description: Several of these derivatives were reported as acting as competitive inhibitors of different tyrosine kinases, with potent cytotoxic activity against various cell lines[58]^,[59]. […] Thus, in this study a novel series of benzoxazole-benzamide conjugates was initially evaluated for their potential anti-cancer activity against colon cancer cell line (HCT-116), breast cancer cell line (MCF-7) and normal human fibroblasts (WI-38), using the Sulforhodamine B colorimetric (SRB) assay.
2.1. Anti-proliferative activity against HCT-116 and MCF-7 human cancer cells lines.
The sulforhodamine B (SRB) assays were performed according to Skehan et al..
Briefly, exponentially growing cells were trypsinized, counted and seeded at the appropriate densities (5000 cells/100 μL/ well) into 96-well microtiter plates. Cells were incubated in a humidified atmosphere at 37 °C for 24 h. Then, the cells were exposed to the tested compounds at the desired concentrations (0.01, 0.1, 1, 10, and 100 μM) or to 1% dimethyl sulfoxide (DMSO) for 72 h. At the end of the treatment period, the media were removed, and the cells were fixed with 10% trichloroacetic acid at 4 °C for 1 h. Following, the cells were washed with tap water four times and incubated with SRB 0.4% for 30 min. Excess dye was removed by washing repeatedly with 1% (vol/vol) acetic acid. The protein-bound dye was dissolved in 10 mM Tris base solution for (optical density) OD determination at 510 nm using a Spectra Max plus Microplate Reader (Molecular Devices, CA). Cell viability was expressed relative to the untreated control cells. […]

VEGFR-2 Protein Kinase = target: T1, VEGFR-2 Protein Kinase (Homo sapiens, UniProt P35968); test: VEGFR-2 inhibitory activity (HTScan VEGF Receptor-2 Kinase Assay Kit, ELISA); type: biochemical; details: mean of three individual experiments
T1 construct: It includes active VEGFR-2 kinase; purchased HTScan VEGF Receptor-2 Kinase Assay Kit
T1 sequence (P35968 20-1356): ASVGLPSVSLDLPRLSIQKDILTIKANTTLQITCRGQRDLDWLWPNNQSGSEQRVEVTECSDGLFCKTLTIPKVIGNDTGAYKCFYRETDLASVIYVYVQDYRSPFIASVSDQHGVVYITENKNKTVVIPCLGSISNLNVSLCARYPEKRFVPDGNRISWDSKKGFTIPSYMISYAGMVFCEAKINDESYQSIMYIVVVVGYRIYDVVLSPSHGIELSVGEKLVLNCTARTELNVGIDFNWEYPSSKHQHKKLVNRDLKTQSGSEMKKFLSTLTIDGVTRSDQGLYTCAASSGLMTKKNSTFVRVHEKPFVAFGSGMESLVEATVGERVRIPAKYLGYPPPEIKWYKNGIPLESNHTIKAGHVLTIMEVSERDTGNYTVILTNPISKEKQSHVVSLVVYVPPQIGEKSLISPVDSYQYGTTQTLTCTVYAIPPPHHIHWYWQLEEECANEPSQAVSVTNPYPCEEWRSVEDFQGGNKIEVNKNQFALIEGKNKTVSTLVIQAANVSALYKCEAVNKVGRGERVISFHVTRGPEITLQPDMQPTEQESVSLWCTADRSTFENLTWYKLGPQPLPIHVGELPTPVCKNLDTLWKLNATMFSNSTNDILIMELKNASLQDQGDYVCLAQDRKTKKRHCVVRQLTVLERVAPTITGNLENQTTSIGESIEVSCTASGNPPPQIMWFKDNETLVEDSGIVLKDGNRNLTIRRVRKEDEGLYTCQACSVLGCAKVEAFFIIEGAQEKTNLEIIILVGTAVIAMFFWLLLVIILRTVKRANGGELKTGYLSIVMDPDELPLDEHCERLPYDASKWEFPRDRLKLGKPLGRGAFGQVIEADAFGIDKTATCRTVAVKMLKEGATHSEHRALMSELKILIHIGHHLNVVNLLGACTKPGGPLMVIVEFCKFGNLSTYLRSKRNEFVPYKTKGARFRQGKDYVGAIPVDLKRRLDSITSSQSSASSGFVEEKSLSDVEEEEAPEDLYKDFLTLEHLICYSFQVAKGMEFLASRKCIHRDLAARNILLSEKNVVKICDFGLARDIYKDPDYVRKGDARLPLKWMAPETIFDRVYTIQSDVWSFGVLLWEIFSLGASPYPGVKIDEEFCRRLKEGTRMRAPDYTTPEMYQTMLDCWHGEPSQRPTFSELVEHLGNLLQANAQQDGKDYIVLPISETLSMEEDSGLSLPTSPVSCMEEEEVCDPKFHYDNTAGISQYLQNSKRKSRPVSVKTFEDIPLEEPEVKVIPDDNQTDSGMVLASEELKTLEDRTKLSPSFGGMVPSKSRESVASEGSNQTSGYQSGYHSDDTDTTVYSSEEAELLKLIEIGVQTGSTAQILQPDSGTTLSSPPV
Protocol: 2.2. VEGFR-2 Inhibitory activity
VEGFR-2 ELISA (Enzyme-Linked Immunosorbent Assay) kits (HTScan® VEGF Receptor-2 […]
phospho-tyrosine antibody) for detection of the phosphorylated form of the substrate peptide).
On a 96-well plate, a particular VEGFR-2 antibody was seeded and 100 μL of the normal solution or the tested compound tested was applied, incubated at room temperature for 2.5 h and washed. Then, 100 μL of the prepared biotin antibody was added, incubated for an additional 1 h at room temperature and washed. Following, 100 μL of streptavidin solution was added at room temperature, incubated for 45 minutes and then, 100 μL of TMB Substrate solution was applied and incubated at room temperature for 30 minutes. Finally, 50 μL stop solution was added and the absorption was measured at 450 nm instantly. The standard curve, the X -axis concentrations, and the Y-axis absorbance were drawn. […]

Bcl-xL = test: Western blot of Bcl-xL expression in HCT-116; type: cell-based, human; details: HCT-116, Western blot, normalised to β-actin
Description: It is well known that the anti-apoptotic proteins Bcl-2 and Bcl-xL are mainly overexpressed in various types of cancer, causing survival of cancer cells and/or drug resistance. Therefore, inhibition of these proteins expression leads to cancer cell death and has been used as a strategy for anticancer drug development. In this study, the impact of compounds 1 and 11 on Bcl-2 and Bcl-xL expression in HCT-116 and MCF-7 cancer cell lines was examined using Western blot analysis and all the data were normalised to β-actin (Figure 9).
2.5. Impact of compounds 1 and 11 on the level of anti-apoptotic markers (Bcl-2, and Bcl-xL).
Gel electrophoresis and immuno-blot analysis of proteins (Western Blot) method was used to examine the effect of compounds 1 and 11 on the level of anti-apoptotic markers (Bcl-2, and Bcl-xL). […]
The cells were then immediately frozen at −20 °C for 1 h for further lysis and collected by cell scraper and sonicated 2×10s. Total protein concentrations were determined colorimetrically using Bradford method before proceeding to the western blotting. […] Briefly, the membranes were incubated for 1 min with a mixture of equal volumes from ECL solution A and ECL solution B. The chemiluminescent signals were captured using a CCD camera-based imager (Chemi Doc imager, Biorad, USA), and the band intensities were then measured with β-actin as an internal reference protein. […]

| IC50 (HCT-116 cells; Homo sapiens, HCT-116, 72 h) [nM] | IC50 (VEGFR-2 Protein Kinase) | IC50 (HCT-116 cells) [nM] | Compound | HCT-116 SI (selectivity index) (HCT-116 cells) | Bcl-xL expression (Bcl-xL) |
| --- | --- | --- | --- | --- | --- |
| 12200 ± 7 | 360 nM and 361 nM |  | O=C(CSc1nc2cc(Cl)ccc2o1)Nc1ccc(C(=O)Nc2ccc(Cl)cc2)cc1 [Compound 11] | 8.5 | inhibited |
| 7200 ± 10 | 270 nM and 268 nM | 7800 ± 15 | O=C(CSc1nc2ccccc2o1)Nc1ccc(C(=O)NC2CCCCC2)cc1 [Compound 1] | 5.3 | inhibited |

Reference: PMC9176662, “Design, synthesis, molecular modeling and biological evaluation of novel Benzoxazole-Benzamide conjugates via a 2-Thioacetamido linker as potential anti-proliferative agents, VEGFR-2 inhibitors and apoptotic inducers” (Journal of Enzyme Inhibition and Medicinal Chemistry, 2022)
